Like-named read-outs stand apart in the source and are kept apart here.
Columns and labels:
[1] = tested on: pooled human liver microsomes; assay type: in vitro ADME; conditions: substrates dextromethorphan (CYP2D6), diclofenac (CYP2C9), phenacetin (CYP1A2), testosterone (CYP3A4)
[2] = target: T1, CYP3A4 (Homo sapiens, UniProt P08684); experiment: Inhibition of CYP3A4-catalyzed testosterone metabolism in Baculosomes
[3] = target: T1, CYP3A4; conditions: read-out: IC50, literature value; cited from earlier work
[4] = target: T2, CYP1A2 (Homo sapiens, UniProt P05177); conditions: CYP1A2, substrate conc. 500 μM
T2 sequence (P05177 1-516): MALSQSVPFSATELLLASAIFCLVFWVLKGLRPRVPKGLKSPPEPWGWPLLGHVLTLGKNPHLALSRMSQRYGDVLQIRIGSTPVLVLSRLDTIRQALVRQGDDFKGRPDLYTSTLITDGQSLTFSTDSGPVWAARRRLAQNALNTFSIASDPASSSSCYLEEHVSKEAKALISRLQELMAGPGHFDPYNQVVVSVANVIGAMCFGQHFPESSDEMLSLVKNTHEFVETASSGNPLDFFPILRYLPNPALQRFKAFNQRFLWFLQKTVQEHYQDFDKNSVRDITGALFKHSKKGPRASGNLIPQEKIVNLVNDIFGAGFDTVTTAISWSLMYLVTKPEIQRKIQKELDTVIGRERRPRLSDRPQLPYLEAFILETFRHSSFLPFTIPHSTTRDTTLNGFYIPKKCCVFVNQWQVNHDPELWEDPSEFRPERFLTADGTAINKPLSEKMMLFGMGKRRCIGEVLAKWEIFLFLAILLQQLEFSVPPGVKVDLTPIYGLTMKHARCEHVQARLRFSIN

[5] = target: T2, CYP1A2; conditions: CYP1A2, substrate conc. 500 μM; remark: listed apart in the source
[6] = target: T3, CYP2D6 (Homo sapiens, UniProt P10635); experiment: Metabolic stability measured with chromatography; assay type: in vitro ADME
T3 sequence (P10635 whole entry): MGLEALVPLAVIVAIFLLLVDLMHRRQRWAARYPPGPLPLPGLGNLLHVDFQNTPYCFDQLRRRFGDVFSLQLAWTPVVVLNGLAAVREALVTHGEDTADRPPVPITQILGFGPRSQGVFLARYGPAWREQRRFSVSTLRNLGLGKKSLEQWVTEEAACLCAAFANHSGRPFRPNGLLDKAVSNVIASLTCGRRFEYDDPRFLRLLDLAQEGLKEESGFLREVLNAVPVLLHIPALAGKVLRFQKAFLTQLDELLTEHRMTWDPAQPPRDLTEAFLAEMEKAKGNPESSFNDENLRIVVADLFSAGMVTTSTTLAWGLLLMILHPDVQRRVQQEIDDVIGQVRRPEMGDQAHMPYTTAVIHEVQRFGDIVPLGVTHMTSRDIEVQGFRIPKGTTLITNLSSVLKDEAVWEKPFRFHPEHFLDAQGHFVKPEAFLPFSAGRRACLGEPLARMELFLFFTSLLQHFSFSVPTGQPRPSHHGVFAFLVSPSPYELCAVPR

[7] = target: T3, CYP2D6; experiment: MesaPlate metabolic stability; assay type: in vitro ADME
[8] = target: T4, CYP2C9 (Homo sapiens, UniProt P11712)
T4 sequence (P11712 whole entry): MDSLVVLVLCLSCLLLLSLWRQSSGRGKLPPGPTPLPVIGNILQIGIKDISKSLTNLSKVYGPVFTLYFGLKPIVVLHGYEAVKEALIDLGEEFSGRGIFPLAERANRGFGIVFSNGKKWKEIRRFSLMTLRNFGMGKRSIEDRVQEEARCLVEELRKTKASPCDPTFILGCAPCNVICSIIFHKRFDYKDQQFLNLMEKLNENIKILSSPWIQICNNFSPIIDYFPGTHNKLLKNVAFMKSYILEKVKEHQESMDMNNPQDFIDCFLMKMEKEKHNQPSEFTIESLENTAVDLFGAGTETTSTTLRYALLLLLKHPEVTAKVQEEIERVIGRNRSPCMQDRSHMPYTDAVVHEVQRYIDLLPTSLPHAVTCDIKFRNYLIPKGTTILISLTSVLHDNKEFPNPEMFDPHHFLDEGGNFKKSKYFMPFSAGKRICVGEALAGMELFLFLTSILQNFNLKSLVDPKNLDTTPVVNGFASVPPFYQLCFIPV

[9] = target: T4, CYP2C9; conditions: cited from earlier work
[10] = target: T4, CYP2C9; experiment: in vitro
[11] = target: T1, CYP3A4; experiment: MesaPlate metabolic stability

T1 sequence (P08684 whole entry): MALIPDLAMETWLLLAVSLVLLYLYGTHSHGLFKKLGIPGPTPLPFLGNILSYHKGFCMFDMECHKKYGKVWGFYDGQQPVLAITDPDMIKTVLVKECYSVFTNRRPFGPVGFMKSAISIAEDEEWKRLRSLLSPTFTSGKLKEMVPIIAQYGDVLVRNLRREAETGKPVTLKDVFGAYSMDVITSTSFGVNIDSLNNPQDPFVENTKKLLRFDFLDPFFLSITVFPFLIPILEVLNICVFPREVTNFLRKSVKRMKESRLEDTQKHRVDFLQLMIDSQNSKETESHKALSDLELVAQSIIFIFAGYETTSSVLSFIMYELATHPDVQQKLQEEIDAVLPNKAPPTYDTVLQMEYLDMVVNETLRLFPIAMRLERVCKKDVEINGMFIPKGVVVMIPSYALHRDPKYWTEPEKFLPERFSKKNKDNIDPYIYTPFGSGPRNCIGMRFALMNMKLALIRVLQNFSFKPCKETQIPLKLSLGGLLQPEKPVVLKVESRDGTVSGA

c1ccc(-n2ccnc2)cc1 [1-phenylimidazole]
measured rate of P450 oxidation in the presence of inhibitor [1]: much lower
IC50 [2]: 2390 ± 10 nM
IC50 [3]: 2700 nM

Cc1c[nH]c2ccccc12 [3-methylindole]
−rRH (metabolic stability), MesaPlate [4]: 15.8 ± 1.8 nmol/min/nmol P450
−rRH (metabolic stability), Chromatography [5]: 10.7 ± 0.8 nmol/min/nmol P450

CN(C)CCC=C1c2ccccc2CCc2ccccc21 [Amitriptyline]
−rRH (metabolic stability), Chromatography ([6]; CYP2D6, substrate conc. 60 μM): 3.8 ± 0.4 nmol/min/nmol P450
−rRH (metabolic stability), MesaPlate ([7]; CYP2D6, substrate conc. 60 μM): 6.7 ± 0.8 nmol/min/nmol P450

O=C(O)Cc1ccccc1Nc1c(Cl)cccc1Cl [Diclofenac]
kcat (MesaPlate) [8]: 0.183 ± 0.017 s⁻¹
Km [9]: 5 µM
kcat (Literature) [9]: 0.483 s⁻¹
Km [10]: 20 ± 7 µM

COCCc1ccc(OCC(O)CNC(C)C)cc1 (stereo not drawn) [Metoprolol]
−rRH (metabolic stability), Chromatography ([6]; CYP2D6, substrate conc. 100 μM): 9.8 ± 2.3 nmol/min/nmol P450
−rRH (metabolic stability), MesaPlate ([7]; CYP2D6, substrate conc. 100 μM): 12.2 ± 2.2 nmol/min/nmol P450

C[C@]12CC[C@H]3[C@@H](CCC4=CC(=O)CC[C@@]43C)[C@@H]1CC[C@@H]2O [Testosterone]
kcat (MesaPlate) ([11]; CYP3A4, Michaelis-Menten fit): 1.97 ± 0.13 s⁻¹
Km ([11]; human, Baculosomes with CYP3A4): 31 ± 7 µM

Source: publication PMC3179854 (Journal of the American Chemical Society, 2011)
